Results as given in ChEMBL document CHEMBL3085646, “Sulfur-containing cytotoxic curvularin macrolides from Penicillium sumatrense MA-92, a fungus obtained from the rhizosphere of the mangrove Lumnitzera racemosa” (J Nat Prod, 2013).

Key:
HeLa = test: Cytotoxic activity against human HeLa cells; format: functional, cell-based
Huh-7 = test: Cytotoxic activity against human HuH7 cells; format: functional, cell-based
[1] = Cytotoxic activity against human SGC7901 cells; format: functional, cell-based, SGC-7901
MCF7 = test: Cytotoxic activity against human MCF7 cells; format: functional, cell-based
NCI-H460 = test: Cytotoxic activity against human NCI-H460 cells; format: functional, cell-based
DU-145 = test: Cytotoxic activity against human DU145 cells; format: functional, cell-based
SW1990 = test: Cytotoxic activity against human SW1990 cells; format: functional, cell-based
[2] = Homo sapiens, HeLa, read-out: IC50
[3] = Homo sapiens, Huh-7, read-out: IC50
[4] = Homo sapiens, SGC-7901, read-out: IC50
[5] = Homo sapiens, MCF7, read-out: IC50
[6] = Homo sapiens, NCI-H460, read-out: IC50
[7] = Homo sapiens, DU-145, read-out: IC50
[8] = Homo sapiens, SW1990, read-out: IC50

Row | Structure (SMILES) | IC50 (HeLa; [2]) | IC50 (Huh-7; [3]) | IC50 [1, 4] | IC50 (MCF7; [5]) | IC50 (NCI-H460; [6]) | IC50 (DU-145; [7]) | IC50 (SW1990; [8]) | other results
1 | CC(=O)O[C@H]1C(=O)[C@@]2(C)[C@H]([C@H](OC(=O)c3ccccc3)[C@]3(O)C[C@H](OC(=O)[C@H](O)[C@@H](NC(=O)c4ccccc4)c4ccccc4)C(C)=C1C3(C)C)[C@]1(OC(C)=O)CO[C@@H]1C[C@@H]2O [PACLITAXEL] | 12 µM | – | – | – | – | – | – | –
2 | CC1CCCCCC(=O)c2c(O)cc(O)cc2CC(=O)O1 (centres undefined) [CURVULARIN] | – | – | – | – | – | – | – | IC50 (Huh-7; huh-7): Not Active; IC50 (HeLa; hela): Not Active; IC50 ([1]; sgc-7901): Not Active; IC50 (MCF7; mcf7): Not Active; IC50 (NCI-H460; nci-h460): Not Active; IC50 (DU-145; du-145): Not Active; IC50 (SW1990; sw1990): Not Active
3 | CC(=O)OCCOC(=O)[C@@H](CS[C@H]1CCC[C@H](C)OC(=O)Cc2cc(O)cc(O)c2C(=O)C1)OC(C)=O | 8 µM | 5.5 µM | 6.8 µM | 4.7 µM | 4.6 µM | 7 µM | 11 µM | –
4 | C[C@H]1CCC[C@H](SC[C@@H](O)C(=O)O)CC(=O)c2c(O)cc(O)cc2CC(=O)O1 | 6 µM | 5.1 µM | 8.5 µM | 4.4 µM | 7 µM | 6 µM | 11 µM | –
5 | COC(=O)[C@H](O)CS[C@H]1CCC[C@H](C)OC(=O)Cc2cc(O)cc(O)c2C(=O)C1 | 6 µM | 3.9 µM | 5.5 µM | 4.4 µM | 3.8 µM | 6 µM | 10 µM | –
6 | O=c1[nH]cc(F)c(=O)[nH]1 [FLUOROURACIL] | – | – | – | – | – | 3.4 µM | – | –
7 | Nc1ccn([C@@H]2O[C@H](CO)[C@@H](O)C2(F)F)c(=O)n1 [GEMCITABINE] | – | – | – | – | – | – | 1.6 µM | –
8 | COc1cccc2c1C(=O)c1c(O)c3c(c(O)c1C2=O)C[C@@](O)(C(=O)CO)C[C@@H]3O[C@H]1C[C@H](N)[C@H](O)[C@H](C)O1 [DOXORUBICIN] | – | – | 0.011 µM | – | – | – | – | –
9 | C[C@H]1CCC/C=C/C(=O)c2c(O)cc(O)cc2CC(=O)O1 [DEHYDROCURVULARIN] | 6 µM | 5 µM | 6 µM | 4 µM | 5 µM | 6 µM | 10 µM | –
